Test results published in PMC5847527, “Identification of a novel 2-oxindole fluorinated derivative as in vivo antitumor agent for prostate cancer acting via AMPK activation” (Scientific Reports, 2018).

How the values were obtained:
PC-3 cells = test: Cell viability by MTT assay, PC-3; format: cell-based, human
Procedure: Figure 3 Comparison of the effect of 2-oxindole fluorinated derivatives on the proliferation of human prostate cancer cells. (A) Normal (PTN2 and RWPE-1) and cancer (PC3,DU145 and LNCaP) prostate cells were treated with different doses of the compounds for 24 hours and cell viability was monitored by MTT assay. […] (C) PC-3, DU145 and LNCaP cells were treated with 25 µM of compound 8c for different times. Values were normalized with the control and represent the mean ± SD of at least three independent experiments. *p < 0.05 and **p < 0.01 compared to control by the Student’s - test.
Human prostate cancer epithelial PC-3, DU145 and LNCaP and human prostate normal RWPE-1 cells were purchased from American Type Culture Collection (ATCC CRL-1435 CRL-1740 and CRL 11609 respectively) (Rockville, MD, USA). The human prostate normal PNT2 cell line was purchased to ECACC (European Collection of Cell cultures, Salisbury, SP4 0JG, UK). Cells were routinely grown in RPMI 1640 medium supplemented with 100 IU/ml penicillin G sodium, 100 µg/ml streptomycin sulfate, 0.25 µg/ml amphotericin B (Invitrogen, Paisley, UK) and 10% fetal calf serum. Cells were used at passages between 10–20. For treatment experiments, cells were plated and grown over night, the medium was then replaced with serum-free RPMI 1640 for 24 hours and then incubated with different doses of the compounds for the indicated times.
Cell viability was determined by 3-(4,5-dimethylthiazol-2-yl)-2,5-diphenyltetrazolium bromide (MTT) (Sigma-Aldrich) method. In brief, a total of 5000 cells/well were seeded into 12-well plate in a final volume of 1 mL. After treatments, 20 µl MTT solution (5 mg/ml in PBS) was added to the medium and cells were incubated at 37 °C for 4 h. Then, the supernatant was discarded and isopropanol was added to dissolve the formazan crystals. Treatments were carried out in triplicate. The optical density in each well was evaluated by measurement of absorbance at 490 and 650 nm using a microplate reader (ELX 800 Bio-Tek Intruments, INC). IC50 values were calculated using GraphPad Prism vs 6.0 (GraphPad Software, Inc, La Jolla, CA, USA). Cell viability was also determined by counting viable and dead cells by Trypan blue staining. Trypan blue positive and negative cells were counted using a Countess^TM automated cell counter (Invitrogen, Carlsbad, CA, USA). Results were expressed in relation to total number of cells counted.

Androgen Receptor (AR) = test: Androgen Receptor expression by Western blot in LNCaP cells; format: cell-based, human; conditions: 25 µM, 24 hours
Procedure: Figure 5 AMPK activation by compound 8c in prostate cancer cells. (A) PC-3 and LNCaP cells were treated with vehicle, 25 µM compound 8c, 25 µM compound 8c + 5 μM Dorsomorphin (8c + D) or 5 μM Dorsomorphin (D), for 1 hour or 24 hours and levels of the phosphorylated AMPK (pAMPK), phosphorylated ACC (pACC), phosphorylated Raptor (pRaptor) forms and HIF1α were determined by Western blot. Upper panel, representative Western blot of three different experiments. β-tubulin (β-Tub) serves as a loading control. Lower panel, densitometric analyses of bands represented as the mean of the ratio pAMPK/AMPK or pACC/ACC. (B) Cell viability monitored by MTT assay in PC-3 and LNCaP cells treated with vehicle, 25 µM and 50 μM compound 8c alone or in the presence of 5 μM Dorsomorphin or transfected with control siRNA (siC) or α1AMPK-selective siRNA (siAMPK). (C) LNCaP cells were treated with vehicle, 25 µM compound 8c, 25 µM compound 8c + 5 μM Dorsomorphin (8c + D) or 5 μM Dorsomorphin (D), for 24 hours and levels of Androgen Receptor (AR), Prostate specific antigen (PSA) and Prostate specific membrane antigen (PSMA) were determined by Western blot.Values were normalized with the control and represent the mean ± SD of at least three independent experiments. *p < 0.05 and **p < 0.01 compared to control and ^#p < 0.05 and ^##p < 0.01 compared with 8c-treated group by the Student’s t-test. […]

Structure (SMILES): O=C1Nc2ccccc2C1(F)Cc1ccc(-c2ccccc2)o1 (stereo not drawn) [Compound 8c, 3-fluoro-3-((5-phenylfuran-2-yl)methyl)indolin-2-one]
- IC50 (PC-3 cells; Homo sapiens, PC-3, MTT, 24 hours): 18 µM
- inhibitory efficacy on cells viability at 50 μM (PC-3 cells; PC-3, 50 μM): 84%
- expression of AR (Androgen Receptor (AR)): markedly reduced the expression of AR
